Holding throughout (assay type): cell-based
The test system of one assay is IL-6 in THP-1 cells. Briefly: IL-6 inhibition in LPS-stimulated THP-1 human monocyte cells (HTRF). The settings on record: for EC50: IL-6 inhibition, LPS-stimulated THP-1 cells, HTRF, 10-point dose-response starting from 10 μM. The gist of the method:
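THP-1 cells were serum-reduced (1% FBS, 24 h), plated at 5000 cells/well with compound for 2 h at 37 °C, then stimulated 22 h with 500 ng/mL LPS. Secreted IL-6 was quantified by HTRF (665/620 nm ratio). Signals were normalised to DMSO, and EC50 was fitted by four-parameter nonlinear regression.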
For orientation: Time-resolved FRET reads energy transfer from a long-lived donor to a nearby acceptor.

For assay [1], the system named is LL29 cells (primary human fibroblasts derived from IPF patients), α-smooth muscle actin. Briefly: Inhibition of the fibrotic process: αSMA staining in TGF-β1 treated primary human fibroblasts from IPF patients (LL29 cells). The note with it: Fibroblast; for EC50: 96 h, LL29 cells, TGF-β1 20 ng/mL, 4 days, % αSMA positive cells. A digest of the protocol: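 IPF-patient-derived LL29 lung fibroblasts in F12 with 1% FBS, stimulated with TGF-β1 alongside compound; TGF-β1 plus DMSO wells served as controls. After 4 days, nuclei stained with 1 μM SYTOX green for 30 min at room temperature, alongside αSMA staining.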

The test system of the next assay is SW480 colon cancer cells. The experiment in a line: Cell viability assay (CellTiter-Blue) in SW480 colon cancer cells. The note with it: Homo sapiens; for EC50: 96 h, SW480 cell viability, four days, CellTiter-Blue; for inhibition at 10 µM: SW480, read-out: percent inhibition at 10 μM. The gist of the method: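 Fluorescence from resazurin reduced to resorufin by metabolically active cells was the read-out, taken after ~3 h with CellTiter-Blue.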

Assay [2] has as its system primary human mesenchymal stem cells (hMSCs). The experiment in a line: Induction of chondrogenesis in primary human mesenchymal stem cells (chondrogenic nodules, Rhodamine B / Nile Red). The settings on record: 6 days; for Emax: relative to TGF-β3 (10 ng/mL) positive control, read-out: Max. Activity as % TGF-β3 activity; for EC50: concentration required to induce 50% levels of chondrogenesis vs TGF-β3, read-out: Conc (nM) of 50% TGF-β3 activity. A digest of the protocol: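 Primary hMSCs at passage 3–6 were fixed with 4% formaldehyde and stained with 2 μg/mL Rhodamine B plus 20 μM Nile Red to image chondrogenic nodules. Nodule counts normalized to the mean of 3 DMSO wells (fold change), averaged over 3 replicate wells per concentration. TGF-β3 served as positive control; EC50, maximum activity and the dose giving maximum are reported.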

The subject of assay [3] is Wnt activity (Sp5-Luc reporter, TCF/LEF binding sites) in SW480 colon carcinoma cells. Briefly: Wnt activity screening assay: Sp5-Luc reporter gene assay in SW480 cells. The note with it: Homo sapiens; Sp5-Luc reporter, SW480 cells, overnight incubation. A digest of the protocol:
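SW480 cells stably carrying a luciferase reporter under a human Sp5 promoter with eight TCF/LEF sites, plated at 4,000 cells/well in 1% FBS medium. Luminescence read with BrightGlo, normalized to DMSO-treated cells; EC50 from four-parameter variable-slope nonlinear regression.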
A general note: Reporter assays use an easily measured gene product as a stand-in for the process of interest.

Turning to `c1cncc(-c2cnc3[nH]nc(-c4cc5cnccc5[nH]4)c3c2)c1` [Compound 256, 5-(Pyridin-3-yl)-3-(1H-pyrrolo[3,2-c]pyridin-2-yl)-1H-pyrazolo[3,4-b]pyridine], the EC50 with IL-6 in THP-1 cells stood at 0.218 µM; in assay [1], 0.2 µM; in the assay on SW480 colon cancer cells, 0.356 µM; in assay [3], 0.251 µM. Moreover, the Emax in assay [2] amounted to 54%.

With `CC(C)Nc1cncc(-c2cnc3[nH]nc(-c4cc5c(N6CCCCC6)nccc5[nH]4)c3c2)c1` [Compound 180, N-Isopropyl-5-(3-(4-(piperidin-1-yl)-1H-pyrrolo[3,2-c]pyridin-2-yl)-1H-pyrazolo[3,4-b]pyridin-5-yl)pyridin-3-amine], the EC50 was found to be 2.13 µM with IL-6 in THP-1 cells, 0.247 µM in assay [1], 3.7 µM in the assay on SW480 colon cancer cells and 3.41 µM in assay [3]. For the same molecule, the Emax in assay [2] amounted to 34%.

In the case of `CS(=O)(=O)NCc1cc(F)cc(-c2nccc3[nH]c(-c4n[nH]c5ncc(-c6cncc(OCc7ccccc7)c6)cc45)cc23)c1` [Compound 774, N-(3-(2-(5-(5-(Benzyloxy)pyridin-3-yl)-1H-pyrazolo[3,4-b]pyridin-3-yl)-1H-pyrrolo[3,2-c]pyridin-4-yl)-5-fluorobenzyl)methanesulfonamide], the EC50 in the assay with IL-6 in THP-1 cells is more than 10 µM; in assay [1], 2.16 µM; with SW480 colon cancer cells, more than 10 µM; in assay [3], 6.86 µM. Besides, the inhibition at 10 µM in the assay on IL-6 in THP-1 cells (THP-1, read-out: percentage in parentheses beside EC50 >10) was 48.3%; in the assay with SW480 colon cancer cells it was 30.2%. Besides, the Emax in assay [2] was 21%.

`CC(C)CC(=O)Nc1cncc(-c2cnc3[nH]nc(-c4cc5c(N6CCN(C)CC6)nccc5[nH]4)c3c2)c1` [Compound 226, 3-Methyl-N-(5-(3-(4-(4-methylpiperazin-1-yl)-1H-pyrrolo[3,2-c]pyridin-2-yl)-1H-pyrazolo[3,4-b]pyridin-5-yl)pyridin-3-yl)butanamide]: the EC50 in the assay on IL-6 in THP-1 cells is 0.141 µM; in assay [1], more than 10 µM; in the assay on SW480 colon cancer cells, more than 10 µM; in assay [3], 3.41 µM. Moreover, the values for the inhibition at 10 µM (in assay [1] (read-out: percent inhibition at 10 μM); with SW480 colon cancer cells) were 0% and 57.6%, respectively. For the same molecule, in assay [2], the Emax was found to be 99%.

Turning to `Fc1cccc(-c2nccc3[nH]c(-c4n[nH]c5ncc(-c6cccnc6)cc45)cc23)c1` [Compound 4, 3-(4-(3-Fluorophenyl)-1H-pyrrolo[3,2-c]pyridin-2-yl)-5-(pyridin-3-yl)-1H-pyrazolo[3,4-b]pyridine], the EC50 in the assay with IL-6 in THP-1 cells amounted to 0.09 µM; in assay [1], 0.44 µM; in the assay on SW480 colon cancer cells, 3.21 µM; in assay [3], 0.464 µM. Further, the Emax in assay [2] came out at 50%.

For `Cc1ccncc1-c1cnc2[nH]nc(-c3cc4c(-c5cc(F)cc(CNS(C)(=O)=O)c5)nccc4[nH]3)c2c1` [Compound 481, N-(3-Fluoro-5-(2-(5-(4-methylpyridin-3-yl)-1H-pyrazolo[3,4-b]pyridin-3-yl)-1H-pyrrolo[3,2-c]pyridin-4-yl)benzyl)methanesulfonamide], the EC50 was determined as 0.307 µM in the assay on IL-6 in THP-1 cells; 0.6 µM in assay [1]; 1.5 µM in the assay with SW480 colon cancer cells; 900 nM in assay [2]; 0.662 µM in assay [3]. The Emax in assay [2] worked out at 173%.

For `CC(C)Nc1cncc(-c2cnc3[nH]nc(-c4cc5c(-c6ccccc6F)nccc5[nH]4)c3c2)c1` [Compound 68, 5-(3-(4-(2-Fluorophenyl)-1H-pyrrolo[3,2-c]pyridin-2-yl)-1H-pyrazolo[3,4-b]pyridin-5-yl)-N-isopropylpyridin-3-amine], the EC50 in the assay on IL-6 in THP-1 cells was 0.235 µM; in assay [1] it was 1.89 µM; in the assay with SW480 colon cancer cells, 0.959 µM; in assay [2], 10 nM; in assay [3], 0.435 µM. Further, the Emax in assay [2] came out at 76%.

For the origin of these results see US10226448B2, “3-(1H-pyrrolo[3,2-C]pyridin-2-yl)-1H-pyrazolo[3,4-B]pyridines and therapeutic uses thereof” (Samumed, LLC, priority 2015, dated 2019).
